According to patent US5453518A, “Flavone derivatives” (Recordati S.A., Chemical and Pharmaceutical Company, priority 1992, dated 1995):
Read-outs that look alike come from different tables or passages of the source.

How the values were obtained:
[1] = test system: rat bladder (K^+ -induced contractions); experiment: Inhibition of K^+ -induced rat bladder contractions; parameters: species or system rat (male Sprague Dawley); details: 0.5 h, KCl 80 mM, 30 min after drug, isolated rat bladder
Description: Female Albino Swiss mice [Crl: CD-1 (ICR) BR] with a body weight of 20-30 g and male Sprague Dawley rats [Crl: CD° BR] with a body weight of 200-300 g, from the Charles River Farm, Italy, were used for the trials. The animals were housed with free access to food and water and kept on a forced light-darkness cycle at 22°-24° C. until the day of the trials. Male rats were killed by a blow on their heads and their lower abdomens were opened along the midlines. Their urinary bladders were removed by a transverse dissection above the trigone and cut into two fragments (20-30 mm long, 1-2 mm wide). Each fragment was suspended in an isolated organ bath containing 10 ml of a normal Tyrode solution (composition in mM: NaCl 137, KCl 2.68, MgCl2 1.11, CaCl2 1.8, NaH2 PO4 0.41, NaHCO3 11.9, glucose 5.55) and connected, under a steady 1 g load, to an isometric transducer (DY-1, Basile). The solution was gassed with a mixture of 95% O2 and 5% CO2 and heated at 37° C. After a 60 minute equilibration the tension responses to a single KCl dose (Bath concentration=80 mM) inducing phasic and tonic contractions were measured under isometric conditions at 30 minute intervals. After recording one or more reproducible responses, a solution of the test drug was added to the bath (final concentration from 10^-4 to 10^-9 M) and 30 minutes later a new contraction was induced. The experimental groups were made up of at least 2 preparations from different animals for each drug concentration tested. The IC50 values of the inhibition of the agonist-induced contractions were evaluated by linear regression analysis.

[2] = in words, background; cited from earlier work
[3] = in words, background; cited from earlier work; remark: listed apart in the source

IC50 ([1]; phasic contraction, read-out: IC50, inhibition of K^+ -induced rat bladder contractions, Phasic): 13 µM
IC50 ([1]; tonic contraction, read-out: IC50, inhibition of K^+ -induced rat bladder contractions, Tonic): 13 µM
SMILES: Cc1c(-c2ccccc2)oc2c(C(=O)OCCN3CCCCC3)cccc2c1=O [Flavoxate, 8-(2-(N-piperidino)ethoxycarbonyl)-3-methyl-4-oxo-2-phenyl-4H-1-benzopyran, reference compound]
stability in physiological fluids [2]: low stability in physiological fluids
anticholinergic effects [3]: practical absence of anticholinergic effects
